The experiment has as its target T1, human S1P1 receptor (Homo sapiens, UniProt P21453).
T1 construct: expressed in transfected cells; membranes used
The experiment in a line: GTP γ35S binding assay for S1P1 activity. It counts as biochemical. The conditions noted are these: membranes of cells stably expressing the S1P1 receptor, test concentrations 0.08 to 5,000 nM, 30 min at 25° C. As to the method:
Compounds were synthesized and tested for S1P1 activity using the GTP γ^35S binding assay. These compounds may be assessed for their ability to activate or block activation of the human S1P1 receptor in cells stably expressing the S1P1 receptor. GTP γ^35S binding was measured in the medium containing (mM) HEPES 25, pH 7.4, MgCl2 10, NaCl 100, dithitothreitol 0.5, digitonin 0.003%, 0.2 nM GTP γ^35S, and 5 μg membrane protein in a volume of 150 μl. Test compounds were included in the concentration range from 0.08 to 5,000 nM unless indicated otherwise. Membranes were incubated with 100 μM 5′-adenylylimmidodiphosphate for 30 min, and subsequently with 10 μM GDP for 10 min on ice. Drug solutions and membrane were mixed, and then reactions were initiated by adding GTP γ^35S and continued for 30 min at 25° C. Reaction mixtures were filtered over Whatman GF/B filters under vacuum, and washed three times with 3 mL of ice-cold buffer (HEPES 25, pH7.4, MgCl2 10 and NaCl 100). Filters were dried and mixed with scintillant, and counted for ^35S activity using a β-counter. Agonist-induced GTP γ^35S binding was obtained by subtracting that in the absence of agonist. Binding data were analyzed using a non-linear regression method. In case of antagonist assay, the reaction mixture contained 10 nM S1P in the presence of test antagonist at concentrations ranging from 0.08 to 5000 nM.
Activity potency: S1P1 receptor from GTP γ^35S: nM, (EC50),
For orientation: GTPγS resists hydrolysis and so accumulates on activated G proteins.

T1 sequence (P21453 whole entry): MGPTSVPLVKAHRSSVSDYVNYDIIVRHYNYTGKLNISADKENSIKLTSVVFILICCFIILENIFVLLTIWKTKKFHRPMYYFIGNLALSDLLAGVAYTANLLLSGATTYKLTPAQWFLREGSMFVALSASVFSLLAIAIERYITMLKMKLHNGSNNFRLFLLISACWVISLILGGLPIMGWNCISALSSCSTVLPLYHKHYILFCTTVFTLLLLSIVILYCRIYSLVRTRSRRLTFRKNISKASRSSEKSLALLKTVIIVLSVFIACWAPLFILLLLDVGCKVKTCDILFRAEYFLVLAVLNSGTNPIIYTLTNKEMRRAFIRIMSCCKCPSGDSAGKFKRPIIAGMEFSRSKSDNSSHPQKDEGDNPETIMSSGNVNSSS

For the compound `Cc1ccc(/C=C(\CCCSc2ccc(CNCCC(=O)O)cc2)c2cc(F)cc(F)c2)cc1C` [Compound 8, 3-[(4-{[(4E)-4-(3,5-Difluorophenyl)-5-(3,4-dimethylphenyl)pent-4-en-1-yl]thio}benzyl)amino]propanoic acid], a half-maximal response (EC50) required 0.0102 µM.
On to `Cc1ccc(/C=C(\CCC[S+]([O-])c2ccc(CNCCC(=O)O)cc2)c2cccc(Cl)c2)cc1C` (centres unmarked) [Compound 5, 3-[(4-{[(4E)-4-(3-Chlorophenyl)-5-(3,4-dimethylphenyl)pent-4-en-1-yl]sulfinyl}benzyl)amino]propanoic acid], for which the midpoint of the response, the EC50, lay at 0.45 µM.
Regarding `Cc1ccc(/C=C(\CCCOc2ccc(CNCCC(=O)O)cc2)c2cccc(Cl)c2)cc1C` [Compound 2, 3-[(4-{[(4E)-4-(3-Chlorophenyl)-5-(3,4-dimethylphenyl)pent-4-en-1-yl]oxy}benzyl)amino]propanoic acid], the EC50 (commonly the concentration needed to bring the measured effect to its halfway point) is 0.0732 µM.
The compound `Cc1ccc(/C=C(\CCCOc2ccc(CNCCCP(=O)(O)O)cc2)c2cc(F)cc(F)c2)cc1C` [Compound 4, {3-[(4-{[(4E)-4-(3,5-Difluorophenyl)-5-(3,4-dimethylphenyl)pent-4-en-1-yl]oxy}benzyl)amino]propyl}phosphonic acid] came in with an EC50 of 0.00784 µM.
Regarding `Cc1ccc(/C=C(\CCCOc2ccc(CNCCC(=O)O)cc2)c2cc(F)cc(F)c2)cc1C` [Compound 3, 3-[(4-{[(4E)-4-(3,5-Difluorophenyl)-5-(3,4-dimethylphenyl)pent-4-en-1-yl]oxy}benzyl)amino]propanoic acid], the EC50 is 0.0519 µM.
The compound `Cc1ccc(/C=C(\CCCCSc2ccc(CNCCC(=O)O)cc2)c2cc(F)cc(F)c2)cc1C` [Compound 9, 3-[(4-{[(5E)-5-(3,5-Difluorophenyl)-6-(3,4-dimethylphenyl)hex-5-en-1-yl]thio}benzyl)amino]propanoic acid] registered an EC50 of 0.639 µM.
With `Cc1ccc(/C=C(\CCC[S+]([O-])c2ccc(CNCCC(=O)O)cc2)c2cc(F)cc(F)c2)cc1C` (centres unmarked) [Compound 7, 3-[(4-{[(4E)-4-(3,5-Difluorophenyl)-5-(3,4-dimethylphenyl)pent-4-en-1-yl]sulfinyl}benzyl)amino]propanoic acid], the EC50 worked out at 0.111 µM.
For the compound `Cc1ccc(/C=C(\CCCOc2ccc(CNCCCP(=O)(O)O)cc2)c2cccc(Cl)c2)cc1C` [Compound 1, {3-[(4-{[(4E)-4-(3-Chlorophenyl)-5-(3,4-dimethylphenyl)pent-4-en-1-yl]oxy}benzyl)amino]propyl}phosphonic acid], the EC50 is 0.00965 µM.

(Values after US20140228325A1, “ALKENE DERIVATIVES AS SPHINGOSINE 1-PHOSPHATE (S1P) RECEPTOR MODULATORS” (Allergan, Inc., priority 2013, published 2014).)
